Patent US10301320B2, “Compositions and methods of modulating 15-PGDH activity” (CASE WESTERN RESERVE UNIVERSITY, priority 2012, dated 2019)
Entries after “also recorded” stand apart in the source; their conditions may differ.

Key:
[1] = system: 15-PGDH-luciferase fusion reporter in V9m, LS174T and V503 cell lines; experiment: 15-PGDH-luciferase fusion gene reporter induction in three colon cancer cell lines (stated jointly); type: cell-based
[2] = system: CD45.2 marked C57BL/6J donor marrow in lethally irradiated CD45.1 mice; experiment: Competitive bone marrow transplant, chimerism; type: in vivo; conditions: donor 5 mg/kg IP daily for 3 doses; weeks 12 and 16
Method: On day 3 mice were sacrificed, marrow flushed and mixed at a 1:1 ratio with vehicle treated CD45.1 marrow. 2 million whole BM cells were injected into the tail vein of lethally irradiated CD45.1 mice and percent chimerism measured via flow cytometry at weeks 8, 12, 16.

Hepatocyte stability = type: in vitro ADME; conditions: result in words
Method: Time to inhibition refers to the time needed to inhibit the generation of NADH by 15-PGDH from the moment with drug is added into the reaction mix. Delta™ refers to the shift in melting temperature of recombinant 15-PGDH in the presence of drug (with cofactor NADH also present). Concentration of Full Cell Line Reporter Induction refers to the concentration of drug that needs to be added to reporter cell line to achieve maximal induction of the 15-PGDH-luciferase gene fusion reporter cassette, as measured by luciferase assays. Hepatocyte stability refers to the half-life of compound in the presence of hepatocytes in culture. Toxicity refers to the concentration of compound needed to decrease cell numbers in a cell culture assay.

FVB male mice = experiment: Dextran sodium sulfate (DSS) induced colitis; type: in vivo
C57BL/6J mice = experiment: Survival after 11 Gy irradiation and bone marrow allograft; type: in vivo
Excerpt: The experimental design is depicted in FIG. 50.
Under the conditions of the mouse colony during this study, control mice receiving 100,000-500,000 cells are all dead between days 4-13 of study. […] Such activity would be of particular utility in settings, such as transplantation with umbilical cord stem cells, in which donor cell numbers are limited.

## CCCC[S+]([O-])c1sc2nc(-c3cccs3)cc(-c3ccccc3)c2c1N (stereo not shown) [SW033291, 2-(butylsulfinyl)-4-phenyl-6-(thiophen-2-yl)thieno[2,3-b]pyridin-3-amine]
[1]
  Induction of 15-PGDH-luciferase reporter, in words: increase luciferase activity
[2]
  Percent blood chimerism of CD45.2 marked cells: significantly increased
Hepatocyte stability
  Hepatocyte stability: Stable > couple hrs
FVB male mice; 5 mg/kg IP twice daily
  Body weight versus control, in words: greater weight at all time points; also recorded: greater body weight
FVB male mice; colonoscopy days 8, 11, 15
  Ulcer formation: prevents two-thirds of ulcer formation
FVB male mice; day 22
  Colon length versus control, in words: greater colon lengths
C57BL/6J mice; 5 mg/kg IP twice daily
  Survival of transplanted mice, in words: promoted survival of mice receiving a bone marrow transplant
C57BL/6J mice; 1 × 10^5 cells, Day 1
  Mouse survival (number of surviving mice): 3
C57BL/6J mice; 1 × 10^5 cells, Day 2
  Mouse survival (number of surviving mice): 3
C57BL/6J mice; 1 × 10^5 cells, Day 3
  Mouse survival (number of surviving mice): 3
C57BL/6J mice; 1 × 10^5 cells, Day 4
  Mouse survival (number of surviving mice): 2
C57BL/6J mice; 1 × 10^5 cells, Day 5
  Mouse survival (number of surviving mice): 1
C57BL/6J mice; 1 × 10^5 cells, Day 6
  Mouse survival (number of surviving mice): 0
C57BL/6J mice; 2 × 10^5 cells, Day 1
  Mouse survival (number of surviving mice): 3
C57BL/6J mice; 2 × 10^5 cells, Day 2
  Mouse survival (number of surviving mice): 3
C57BL/6J mice; 2 × 10^5 cells, Day 3
  Mouse survival (number of surviving mice): 3
C57BL/6J mice; 2 × 10^5 cells, Day 4
  Mouse survival (number of surviving mice): 3
C57BL/6J mice; 2 × 10^5 cells, Day 5
  Mouse survival (number of surviving mice): 3
C57BL/6J mice; 2 × 10^5 cells, Day 6
  Mouse survival (number of surviving mice): 2
C57BL/6J mice; 2 × 10^5 cells, Day 7
  Mouse survival (number of surviving mice): 2
C57BL/6J mice; 2 × 10^5 cells, Day 8
  Mouse survival (number of surviving mice): 2
C57BL/6J mice; 2 × 10^5 cells, Day 9
  Mouse survival (number of surviving mice): 2
C57BL/6J mice; 2 × 10^5 cells, Day 10
  Mouse survival (number of surviving mice): 2
C57BL/6J mice; 2 × 10^5 cells, Day 11
  Mouse survival (number of surviving mice): 2
C57BL/6J mice; 2 × 10^5 cells, Day 12
  Mouse survival (number of surviving mice): 1
C57BL/6J mice; 2 × 10^5 cells, Day 13
  Mouse survival (number of surviving mice): 0
C57BL/6J mice; 5 × 10^5 cells, Day 1
  Mouse survival (number of surviving mice): 3
C57BL/6J mice; 5 × 10^5 cells, Day 2
  Mouse survival (number of surviving mice): 3
C57BL/6J mice; 5 × 10^5 cells, Day 3
  Mouse survival (number of surviving mice): 3
C57BL/6J mice; 5 × 10^5 cells, Day 4
  Mouse survival (number of surviving mice): 3
C57BL/6J mice; 5 × 10^5 cells, Day 5
  Mouse survival (number of surviving mice): 3
C57BL/6J mice; 5 × 10^5 cells, Day 6
  Mouse survival (number of surviving mice): 3
C57BL/6J mice; 5 × 10^5 cells, Day 7
  Mouse survival (number of surviving mice): 3
C57BL/6J mice; 5 × 10^5 cells, Day 8
  Mouse survival (number of surviving mice): 2
C57BL/6J mice; 5 × 10^5 cells, Day 9
  Mouse survival (number of surviving mice): 2
C57BL/6J mice; 5 × 10^5 cells, Day 10
  Mouse survival (number of surviving mice): 2
C57BL/6J mice; 5 × 10^5 cells, Day 11
  Mouse survival (number of surviving mice): 2
C57BL/6J mice; 5 × 10^5 cells, Day 12
  Mouse survival (number of surviving mice): 2
C57BL/6J mice; 5 × 10^5 cells, Day 13
  Mouse survival (number of surviving mice): 2
C57BL/6J mice; 5 × 10^5 cells, Day 19
  Mouse survival (number of surviving mice): 2
